ChEMBL document CHEMBL5727981, “ASK1 inhibitor and preparation method and use thereof” (2020)

Each compound was assayed against T1, Mitogen-activated protein kinase kinase kinase 5 (Homo sapiens, UniProt Q99683) (assay: In Vitro Enzyme Activity: Reagents:Base Reaction Buffer: 20 mM Hepes (pH 7.5), 10 mM MgCl2, 1 mM EGTA, 0.02% Brij35, 0.02 mg/ml BSA, 0.1 mM Na3VO4, 2 mM DTT, 1% DMSOCompound Treatment:The test compound was formulated into a 10 mM stock solution in DMSO, which was diluted into 10 concentrations in 3-fold degression, and placed in a 384-well plate (Cyclic Olefin Copolymer LDV Echo®).Kinase Name: ASK1/MAP3K5 (Invitrogen, Carlsbad, Calif.)Type: Recombinant Human Full Length Protein, GST-taggedFinal concentration of the enzyme: 20 nMSubstrate: Myelin basic protein, MBP (Active Motif, Carlsbad, Calif.)Final concentration of the substrate: 20 μMExperimental Operations:1. The substrate was dissolved in a freshly prepared base reaction buffer.2. A desired coenzyme was added to the above substrate solution.3. The kinase was added to the substrate solution and mixed slowly.4. The solution of the test compound in DMSO was added to the kinase reaction solution and incubated at room temperature for 20 minutes.5. 33P-ATP (specific activity of 10 μCi/μl) was added to the reaction solution to initiate the reaction.6. Incubated at room temperature for 2 hours.7. A small portion of the reactants was placed onto a P-81 ion exchange filter paper.8. The filter paper was washed three times with 0.75% […] to wash off the unbound phosphate, and then the filter paper was dried.9. The radioactivity remaining on the filter paper was determined.10. Kinase activity data was expressed as the ratio of the kinase activity remaining in the test sample to the kinase activity in the vehicle (DMSO).).
T1 sequence (Q99683 whole entry): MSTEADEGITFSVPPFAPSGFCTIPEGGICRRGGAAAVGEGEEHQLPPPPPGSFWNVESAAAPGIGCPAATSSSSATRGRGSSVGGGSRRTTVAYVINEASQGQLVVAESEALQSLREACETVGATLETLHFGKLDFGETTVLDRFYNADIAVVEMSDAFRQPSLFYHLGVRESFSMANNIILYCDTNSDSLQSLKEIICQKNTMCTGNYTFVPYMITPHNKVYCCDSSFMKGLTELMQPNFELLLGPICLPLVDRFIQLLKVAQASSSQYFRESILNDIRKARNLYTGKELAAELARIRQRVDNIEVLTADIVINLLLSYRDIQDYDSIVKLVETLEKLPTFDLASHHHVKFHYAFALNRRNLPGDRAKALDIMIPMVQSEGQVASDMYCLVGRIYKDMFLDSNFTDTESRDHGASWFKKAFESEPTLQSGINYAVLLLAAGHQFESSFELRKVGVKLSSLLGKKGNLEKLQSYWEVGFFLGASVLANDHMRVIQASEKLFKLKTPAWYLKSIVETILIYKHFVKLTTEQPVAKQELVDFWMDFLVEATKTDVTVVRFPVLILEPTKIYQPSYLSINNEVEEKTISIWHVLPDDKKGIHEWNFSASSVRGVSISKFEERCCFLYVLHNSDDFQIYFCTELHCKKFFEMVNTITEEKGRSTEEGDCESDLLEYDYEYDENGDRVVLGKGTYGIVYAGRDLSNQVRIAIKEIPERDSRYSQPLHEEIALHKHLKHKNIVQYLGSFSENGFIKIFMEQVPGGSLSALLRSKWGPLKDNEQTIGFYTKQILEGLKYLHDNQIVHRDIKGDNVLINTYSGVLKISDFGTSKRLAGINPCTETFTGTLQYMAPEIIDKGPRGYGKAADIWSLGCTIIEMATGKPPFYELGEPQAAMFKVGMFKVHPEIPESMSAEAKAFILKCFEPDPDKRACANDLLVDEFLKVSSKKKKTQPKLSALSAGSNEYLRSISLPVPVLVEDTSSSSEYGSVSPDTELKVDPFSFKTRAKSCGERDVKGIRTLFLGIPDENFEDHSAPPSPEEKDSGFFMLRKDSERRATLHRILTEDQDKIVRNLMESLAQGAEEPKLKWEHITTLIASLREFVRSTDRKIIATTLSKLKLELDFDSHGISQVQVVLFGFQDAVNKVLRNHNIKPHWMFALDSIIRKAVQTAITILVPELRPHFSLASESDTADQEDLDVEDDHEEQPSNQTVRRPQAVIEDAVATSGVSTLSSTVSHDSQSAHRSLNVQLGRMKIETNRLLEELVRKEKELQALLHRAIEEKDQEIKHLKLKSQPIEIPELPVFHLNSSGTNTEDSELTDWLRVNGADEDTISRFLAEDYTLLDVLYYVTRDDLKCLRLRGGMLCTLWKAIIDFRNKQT

IC50 [nM] | Structure (SMILES)
< 50 | CC(C)c1cc2ncn(-c3cccc(-c4nncn4C(C)C)n3)c(=O)c2cc1-n1cnc(C2CC2)c1
< 50 | CC(C)n1cnnc1-c1cccc(N2CCc3cc(Cl)c(-n4cnc(C5CC5)c4)cc3C2=O)n1
< 50 | CCc1cn(-c2cc3c(=O)n(-c4cccc(-c5nncn5C(C)C)n4)cnc3cc2C)cn1
